# Assay results from PMC3769509 (Nuclear medicine and biology, 2013).
# Where “and” joins values, the source holds several entries; their conditions need not be identical. Equal entries are not always repeated.
# Tests used:
# [1] = epilepsy patients, after intravenous infusions; cited from earlier work
# [2] = PET studies: brain pharmacokinetics; conditions: baboon, iv
# [3] = PET studies: biodistribution in peripheral organs; conditions: baboon, iv
# [4] = PET studies: plasma analysis of unchanged radiotracer; conditions: baboon, iv; for fraction of radioactivity in plasma as unmetabolized compound: 30 min after administration
# Lipophilicity at pH 7.4 = type: physicochemical
# Free fraction in plasma = type: in vitro ADME; conditions: baboon plasma
# [5] = Ex vivo rat brain analysis after [11C]BA administration; type: in vivo; conditions: 5 min and 30 min after administration, data not shown
# [6] = parent and/or labeled metabolites
SMILES,brain uptake of carbon-11 [2],high uptake in vertebrae [3],fraction of radioactivity in plasma as unmetabolized compound [4] [%],"uptake in heart [3, 6]",Log D at pH 7.4 (Lipophilicity at pH 7.4),% unbound in plasma (Free fraction in plasma),other results
"CCCC(CCC)C(=O)O [VPA, 2-propylpentanoic acid]",< 0.006 %ID/cc and 0.004 %ID/cc,not observed,98,remarkably high,–,–,free VPA in plasma [1]: 9–15%
"O=[11C](O)CCCc1ccccc1 [[^11C]PBA, [^11C]-4-Phenylbutyric Acid]",~ 0.006 %ID/cc,–,–,moderate,−0.20±0.03 (n=6),1.5±0.7 (n=6) %,"uptake in liver [3, 6]: high"
"CCCC(=O)O [BA, n-butyric acid]",< 0.006 %ID/cc,–,–,–,–,–,–
"O=C(O)CCCc1ccccc1 [PBA, 4-phenylbutyric acid]",< 0.006 %ID/cc,not observed,85,–,–,–,–
"CCCC(CCC)[11C](=O)O [[^11C]VPA, [^11C]Valproic Acid]",–,–,–,exceptionally high,0.26±0.03 (n=5),26±0.3 (n=2) %,intact fraction in plasma ([4]; over 90 min): > 90%
"CCC[11C](=O)O [[^11C]BA, [^11C]Butyric Acid]",~ 0.006 %ID/cc,high uptake,–,very low,–,82±0.4 (n=2) %,"intact [11C]BA fraction in brain [5]: very low; uptake in pancreas [3, 6]: relatively high and high; uptake in spleen [3, 6]: relatively high and high"
